One compound from ChEMBL document CHEMBL1128044, “Dichotomin A, a new cyclic hexapeptide from Stellaria dichotoma L. var. lanceolata Bge” (Bioorg Med Chem Lett, 1995) can be followed below.

≈ marks a conversion by molar mass, not a printed value. Residues, ends and D or L forms follow the SMILES beside them.

This assay has as its system P388. Kind of assay: Tested for inhibitory activity against p-388 lymphocytic leukemia cells. Type of assay: functional, cell-based. Conditions: Mus musculus.

As a reminder, the IC50 is the point on the concentration scale where inhibition reaches its midpoint. A low value points to greater potency in that assay. Compound `CC(C)C[C@@H]1NC(=O)[C@H](Cc2ccccc2)NC(=O)[C@H]([C@@H](C)O)NC(=O)CNC(=O)[C@H](C(C)C)NC(=O)[C@H](Cc2ccc(O)cc2)NC1=O` (HELM PEPTIDE1{F.L.Y.V.G.T}$PEPTIDE1,PEPTIDE1,1:R1-6:R2$$$V2.0) displayed an IC50 of 2.5 µg/mL (≈ 3.67 µM).
